In US9732081B2, “1,6-diazabicyclo [3,2,1] octan-7-one derivatives and their use in the treatment of bacterial infections” (WOCKHARDT LIMITED, priority 2012, dated 2017):
Converted amounts (≈) assume the structure as drawn. Read-outs that look alike come from different tables or passages of the source.

How the values were obtained:
Format in all cases: cell-based
P. aeruginosa Ps 32 = experiment: Antibacterial activity (MIC, agar dilution per CLSI) against P. aeruginosa Ps 32; conditions: for MIC: Pseudomonas aeruginosa
Procedure: (§1) The biological activity of representative compounds according to the invention against various bacterial strains was investigated. In a typical study, overnight grown bacterial cultures were diluted appropriately and inoculated on the agar media containing doubling dilutions of the test compounds. Observation for growth or no growth was performed after 16-20 hours of incubation at 35±2° C. in ambient air. The overall procedure was performed as per Clinical and Laboratory Standards Institute (CLSI) recommendations (Clinical and Laboratory Standards Institute (CLSI), Performance Standards for Antimicrobial Susceptibility Testing, 20th Informational Supplement, M 100-S20, Volume 30, No. 1, 2010).
(§2) The activities are expressed as MICs (mcg/ml).

E. Coli M 50 = experiment: Antibacterial activity (MIC, agar dilution per CLSI) against E. Coli M 50; conditions: for MIC: Escherichia coli
Procedure: as §1, §2

P. aeruginosa Ps 21 = experiment: Antibacterial activity (MIC, agar dilution per CLSI) against P. aeruginosa Ps 21; conditions: for MIC: Pseudomonas aeruginosa
Procedure: as §1, §2

E. Coli W 13352 = experiment: Antibacterial activity (MIC, agar dilution per CLSI) against E. Coli W 13352; conditions: for MIC: Escherichia coli
Procedure: as §1, §2

E. Coli W 13353 = experiment: Antibacterial activity (MIC, agar dilution per CLSI) against E. Coli W 13353; conditions: for MIC: Escherichia coli
Procedure: as §1, §2

E. Coli W 13351 = experiment: Antibacterial activity (MIC, agar dilution per CLSI) against E. Coli W 13351; conditions: for MIC: Escherichia coli
Procedure: as §1, §2

E. Coli H 483 = experiment: Antibacterial activity (MIC, agar dilution per CLSI) against E. Coli H 483; conditions: for MIC: Escherichia coli, read-out: MIC E. Coli H 483
Procedure: as §1, §2

[1] = MDR Gram negative strain, Class C ESBL, 16-20 hours at 35±2° C.
[2] = MDR Gram negative strain, Class A ESBL, 16-20 hours at 35±2° C.
[3] = PS32, MDR P. aeruginosa strain, agar dilution, 16-20 hours at 35±2° C., read-out: MIC Ps 32
[4] = MDR Gram negative strain, Class C ESBL, 16-20 hours at 35±2° C., read-out: MIC E. Coli M 50
[5] = PS21, MDR P. aeruginosa strain, agar dilution, 16-20 hours at 35±2° C., read-out: MIC Ps 21
[6] = MDR Gram negative strain, Class A ESBL, 16-20 hours at 35±2° C., read-out: MIC E. Coli W 13352
[7] = MDR Gram negative strain, Class A ESBL, 16-20 hours at 35±2° C., read-out: MIC E. Coli W 13353
[8] = MDR Gram negative strain, Class A ESBL, 16-20 hours at 35±2° C., read-out: MIC E. Coli W 13351
[9] = MDR Gram negative strain, Class C ESBL, agar dilution, 16-20 hours at 35±2° C.
[10] = MDR P. aeruginosa strain, agar dilution, 16-20 hours at 35±2° C.

SMILES | MIC (P. aeruginosa Ps 32; [3]) [µg/mL] | MIC (E. Coli M 50; [4]) [µg/mL] | MIC (P. aeruginosa Ps 21; [5]) [µg/mL] | MIC (E. Coli W 13352; [6]) [µg/mL] | MIC (E. Coli W 13353; [7]) [µg/mL] | MIC (E. Coli W 13351; [8]) [µg/mL] | MIC (E. Coli H 483; [9]) [µg/mL] | MIC E. Coli M 50 (E. Coli M 50; [1]) [µg/mL] | MIC E. Coli W 13352 (E. Coli W 13352; [2]) [µg/mL] | MIC E. Coli W 13353 (E. Coli W 13353; [2]) [µg/mL] | MIC E. Coli W 13351 (E. Coli W 13351; [2]) [µg/mL] | further results
CN(C)c1cc(NC(=O)CNC(C)(C)C)c(O)c2c1C[C@H]1C[C@H]3[C@H](N(C)C)C(O)=C(C(N)=O)C(=O)[C@@]3(O)C(O)=C1C2=O [Tigecyclin, Tigecycline, reference compound] | – | – | – | – | – | – | – | – | – | – | – | MIC (P. aeruginosa Ps 32; PS32, read-out: MIC Ps 32): 16 µg/mL (≈ 27.3 µM); MIC (E. Coli M 50; read-out: MIC E. Coli M 50, MDR Gram negative strain, Class C ESBL, 16-20 hours at 35±2° C.): 0.5 µg/mL (≈ 0.854 µM); MIC (P. aeruginosa Ps 21; PS21, read-out: MIC Ps 21): 16 µg/mL (≈ 27.3 µM); MIC (E. Coli W 13352; read-out: MIC E. Coli W 13352, MDR Gram negative strain, Class A ESBL, 16-20 hours at 35±2° C.): 0.25 µg/mL (≈ 0.427 µM); MIC (E. Coli W 13353; read-out: MIC E. Coli W 13353, MDR Gram negative strain, Class A ESBL, 16-20 hours at 35±2° C.): 1 µg/mL (≈ 1.71 µM); MIC (E. Coli W 13351; read-out: MIC E. Coli W 13351, MDR Gram negative strain, Class A ESBL, 16-20 hours at 35±2° C.): 1 µg/mL (≈ 1.71 µM); MIC (E. Coli H 483): 0.5 µg/mL (≈ 0.854 µM)
O=C(NOC[C@@H]1CCCCN1)[C@@H]1CC[C@@H]2CN1C(=O)N2OS(=O)(=O)O [Example 18, (2S,5R)-7-oxo-N-((2S)piperidin-2-ylmethyloxy)-6-(sulfooxy)-1,6-diazabicyclo[3.2.1]octane-2-carboxamide] | – | – | – | – | – | – | – | 1 (≈ 2.64 µM) | 1 (≈ 2.64 µM) | 0.5 (≈ 1.32 µM) | 1 (≈ 2.64 µM) | MIC (P. aeruginosa Ps 32; PS32, read-out: MIC Ps 32): > 32 µg/mL; MIC (P. aeruginosa Ps 21; PS21, read-out: MIC Ps 21): > 32 µg/mL; MIC (E. Coli H 483): > 32 µg/mL
CC(C)(O/N=C(\C(=O)N[C@@H]1C(=O)N2C(C(=O)[O-])=C(C[n+]3ccccc3)CS[C@H]12)c1csc(N)n1)C(=O)O [Ceftazidime, reference compound] | > 32 | > 32 | > 32 | > 32 | 32 (≈ 58.5 µM) | 32 (≈ 58.5 µM) | > 32 | – | – | – | – | –
C[C@H]1[C@H](NC(=O)/C(=N\OC(C)(C)C(=O)O)c2csc(N)n2)C(=O)N1S(=O)(=O)O [Aztreonam, reference compound] | 8 (≈ 18.4 µM) | > 32 | 8 (≈ 18.4 µM) | > 32 | > 32 | > 32 | > 32 | – | – | – | – | –
O=C(NOCC1CCCCN1)[C@@H]1CC[C@@H]2CN1C(=O)N2OS(=O)(=O)O (stereo partly drawn) [Example 17, (2S,5R)-7-oxo-N-((2R,S)piperidin-2-ylmethyloxy)-6-(sulfooxy)-1,6-diazabicyclo[3.2.1]octane-2-carboxamide] | – | – | – | – | – | – | – | 0.5 (≈ 1.32 µM) | 1 (≈ 2.64 µM) | 0.5 (≈ 1.32 µM) | 1 (≈ 2.64 µM) | MIC Ps 32 (P. aeruginosa Ps 32; [10]): >32 µg/mL; MIC Ps 21 (P. aeruginosa Ps 21; [10]): >32 µg/mL; MIC E. Coli H 483 (E. Coli H 483; [9]): >32 µg/mL
O=C(NOC[C@@H]1CCCCN1)[C@@H]1CC[C@@H]2CN1C(=O)N2OS(=O)(=O)O [Example 19, (2S,5R)-7-oxo-N-((2S)piperidin-2-ylmethyloxy)-6-(sulfooxy)-1,6-diazabicyclo[3.2.1]octane-2-carboxamide] | – | – | – | – | – | – | – | 8 (≈ 21.1 µM) | 16 (≈ 42.3 µM) | 4 (≈ 10.6 µM) | 8 (≈ 21.1 µM) | MIC Ps 32 (P. aeruginosa Ps 32; [10]): >32 µg/mL; MIC Ps 21 (P. aeruginosa Ps 21; [10]): >32 µg/mL; MIC E. Coli H 483 (E. Coli H 483; [9]): >32 µg/mL
O=C(NOC1CCNC1)[C@@H]1CC[C@@H]2CN1C(=O)N2OS(=O)(=O)O (stereo partly drawn) [Example 30, (2S,5R)-7-oxo-N-[(3R,S)-pyrrolidin-3-yloxy]-6-(sulfooxy)-1,6-diazabicyclo[3.2.1]octane-2-carboxamide] | – | – | – | – | – | – | – | 4 (≈ 11.4 µM) | 8 (≈ 22.8 µM) | 4 (≈ 11.4 µM) | 8 (≈ 22.8 µM) | MIC Ps 32 (P. aeruginosa Ps 32; [10]): >32 µg/mL; MIC Ps 21 (P. aeruginosa Ps 21; [10]): >32 µg/mL; MIC E. Coli H 483 (E. Coli H 483; [9]): >32 µg/mL

Second part, led by results:

MIC (P. aeruginosa Ps 32; [3]) [µg/mL] | MIC (E. Coli M 50; [4]) [µg/mL] | MIC (P. aeruginosa Ps 21; [5]) [µg/mL] | MIC (E. Coli W 13352; [6]) [µg/mL] | MIC (E. Coli W 13353; [7]) [µg/mL] | MIC (E. Coli W 13351; [8]) [µg/mL] | MIC (E. Coli H 483; [9]) [µg/mL] | SMILES | MIC E. Coli M 50 (E. Coli M 50; [1]) [µg/mL] | MIC E. Coli W 13352 (E. Coli W 13352; [2]) [µg/mL] | MIC E. Coli W 13353 (E. Coli W 13353; [2]) [µg/mL] | MIC E. Coli W 13351 (E. Coli W 13351; [2]) [µg/mL] | further results
> 32 | 1 (≈ 2.74 µM) | > 32 | 2 (≈ 5.49 µM) | 1 (≈ 2.74 µM) | 2 (≈ 5.49 µM) | > 32 | O=C(NOC[C@H]1CCCN1)[C@@H]1CC[C@@H]2CN1C(=O)N2OS(=O)(=O)O [Example 2, (2S,5R)-7-oxo-N-[(2R)-pyrrolidin-2-ylmethyloxy]-6-(sulfooxy)-1,6-diazabicyclo[3.2.1]octane-2-carboxamide] | – | – | – | – | –
> 32 | 0.5 (≈ 1.37 µM) | > 32 | 1 (≈ 2.74 µM) | 0.5 (≈ 1.37 µM) | 1 (≈ 2.74 µM) | > 32 | O=C(NOC[C@@H]1CCCN1)[C@@H]1CC[C@@H]2CN1C(=O)N2OS(=O)(=O)O [Example 1, (2S,5R)-7-oxo-N-[(2S)-pyrrolidin-2-ylmethyloxy]-6-(sulfooxy)-1,6-diazabicyclo[3.2.1]octane-2-carboxamide] | – | – | – | – | –
> 32 | 0.5 (≈ 1.67 µM) | > 32 | 0.25 (≈ 0.835 µM) | 0.25 (≈ 0.835 µM) | 0.25 (≈ 0.835 µM) | 1 (≈ 3.34 µM) | C[C@@H](O)[C@H]1C(=O)N2C(C(=O)O)=C(SCCN=CN)C[C@H]12 [Imipenem, reference compound] | – | – | – | – | –
> 32 | 8 (≈ 22 µM) | > 32 | 8 (≈ 22 µM) | 8 (≈ 22 µM) | 8 (≈ 22 µM) | > 32 | O=C(NOC[C@@H]1CCNC1)[C@@H]1CC[C@@H]2CN1C(=O)N2OS(=O)(=O)O [Example 4, (2S,5R)-7-oxo-N-[(3R)-pyrrolidin-3-ylmethyloxy]-6-(sulfooxy)-1,6-diazabicyclo[3.2.1]octane-2-carboxamide] | – | – | – | – | –
> 32 | 8 (≈ 22 µM) | > 32 | 16 (≈ 43.9 µM) | 8 (≈ 22 µM) | 16 (≈ 43.9 µM) | > 32 | O=C(NOC[C@H]1CCNC1)[C@@H]1CC[C@@H]2CN1C(=O)N2OS(=O)(=O)O [Example 3, (2S,5R)-7-oxo-N-[(3S)-pyrrolidin-3-ylmethyloxy]-6-(sulfooxy)-1,6-diazabicyclo[3.2.1]octane-2-carboxamide] | – | – | – | – | –
